Measurements: patent publication US12357601B2, “Composition for inhibiting growth of bacterium having menaquinone synthesis pathway through futalosine or futalosine derivative” (NOSTER INC., priority 2017, dated 2025)

Key:
[1] = tested on: Helicobacter pylori SS1 strain, TN2GF4 strain, TK1029 strain, RC-1 strain; experiment: Proliferation inhibitory effect (in vitro) of low concentration fatty acid, shaking culture 24 hr, colony count; format: cell-based; settings: fatty acid 20 μM, 24 hr; SS1, TN2GF4, TK1029, RC-1 strains; compared with linoleic acid
Method: Helicobacter pylori SS1 strain, TN2GF4 strain, TK1029 strain, RC-1 strain were each inoculated to a 6-well plate containing 2 mL of a liquid medium (BHI added with 5% FCS), and fatty acid (20 μM) and menaquinone (MK-4) 100 μg/mL were added. After shaking culture for 24 hr at temperature 37° C., microaerobic conditions (5% 02, 10% CO2, 85% N2), the culture medium was applied on a Helicobacter agar plate, cultured for 3 days and the resulting colonies were counted (FIG. 2-1 A: SS1 strain, FIG. 2-2 B: TN2GF4 strain, FIG. 2-3 C: TK1029 strain, FIG. 2-4 D: RC-1 strain. Item 1: control (menaquinone no addition), Item 2: control (menaquinone 100 μg/mL addition), Item 3: HYA 20 μM (menaquinone no addition), Item 4: HYA 20 μM (menaquinone 100 μg/mL addition), Item 5: linoleic acid 20 μM (menaquinone no addition), Item 6: linoleic acid 20 μM (menaquinone 100 μg/mL addition). *, P<0.0001 vs. Control (ordinary one-way ANOVA)).

[2] = tested on: Helicobacter suis TKY strain; experiment: Gastric MALT lymphoma model: number of Helicobacter suis bacteria in the stomach 6 months after infection; format: in vivo, C57BL/6 female mouse; settings: 200 μM in water
Method: Helicobacter suis is suspected to be the cause of the onset of gastric MALT lymphoma. A 5-week-old C57BL/6 female mouse was orally infected only once with a stomach suspension of Helicobacter suis TKY strain-infected mouse and dissected 6 months after the infection, and the number of bacteria in the gastric mucosa was counted according to the method described in Example 5. Water added with HYA (200 μM) was given to the mouse from one week before the infection.
The measurement of the number of Helicobacter suis bacteria in the stomach of the infected mouse was performed in the same manner as in Example 5. The relative value of the number of bacteria in gastric mucosa when that with HYA non-administration is 1 is shown (FIG. 5-1 A, Item 1: HYA non-administration group, Item 2: HYA administration group).

[3] = tested on: Campylobacter jejuni ATCC33560 strain; experiment: Proliferation inhibitory effect (in vitro) on Campylobacter jejuni, absorbance and colony count; format: cell-based; settings: 100, 200, 400 μM, 24 hr; concentration dependent; strong compared to linoleic acid
[4] = tested on: Helicobacter suis TKY strain or SNTW101 strain; experiment: Proliferation inhibitory effect (in vivo) of HYA on Helicobacter suis, real-time PCR quantification, 2 weeks after infection; parameters: species or system C57BL/6 female mouse; settings: 200 μM in water from one week before infection; 2 weeks later
Method: A 5-week-old C57BL/6 female mouse was orally infected 3 times with Helicobacter pylori SS1 strain or TN2GF4 strain (1-5×10^8 CFU) every other day and dissected at 2 weeks from the final infection day, and the number of bacteria in the gastric mucosa was counted. Water added with HYA or linoleic acid (200 μM) was given to the mice from 1 week before infection (FIG. 4-1 A: SS1 strain, FIG. 4-2 B: TN2GF4 strain). A 5-week-old C57BL/6 female mouse was orally infected only once with a stomach suspension of Helicobacter suis TKY strain or SNTW101 strain-infected mouse and dissected 2 weeks later, and the number of bacteria in the gastric mucosa was counted. Water added with HYA (200 μM) was given to the mouse from one week before the infection (FIG. 4-3 C). […]
DNA was prepared from a part of the stomach tissue by using DNeasy Blood & Tissue Kit (Qiagen) and real-time PCR (model: CFX96 (Bio-Rad)) was performed. As the primer for Helicobacter suis quantification, the following was used by reference to Diagn. […]
The following were used as the primers for β-actin quantification of the mouse by reference to J. Clin. Microbiol. […]
For quantification by real-time PCR, iQ™ SYBR Green Supermix was used. […]
Thereafter, the temperature was increased by 0.5° C. every seconds from 65° C. to 95° C. and the fluorescence was measured. […]

[5] = tested on: Helicobacter pylori SS1 strain or TN2GF4 strain; experiment: Proliferation inhibitory effect (in vivo) of HYA on Helicobacter pylori, number of bacteria in gastric mucosa; parameters: species or system C57BL/6 female mouse; settings: 200 μM in water from 1 week before infection; 2 weeks from final infection
Method: A 5-week-old C57BL/6 female mouse was orally infected 3 times with Helicobacter pylori SS1 strain or TN2GF4 strain (1-5×10^8 CFU) every other day and dissected at 2 weeks from the final infection day, and the number of bacteria in the gastric mucosa was counted. Water added with HYA or linoleic acid (200 μM) was given to the mice from 1 week before infection (FIG. 4-1 A: SS1 strain, FIG. 4-2 B: TN2GF4 strain). A 5-week-old C57BL/6 female mouse was orally infected only once with a stomach suspension of Helicobacter suis TKY strain or SNTW101 strain-infected mouse and dissected 2 weeks later, and the number of bacteria in the gastric mucosa was counted. Water added with HYA (200 μM) was given to the mouse from one week before the infection (FIG. 4-3 C). […] The measurement of the number of Helicobacter suis bacteria in the stomach of the infected mouse was performed as follows.

CCCCC/C=C\CC(O)CCCCCCCCC(=O)O (stereo not drawn) [HYA, 10-hydroxy-cis-12-octadecenoic acid]
proliferation of Helicobacter pylori (colony count) [1]: suppressed proliferation | number of Helicobacter suis bacteria in gastric mucosa, compared to the non-administration group [2]: significantly suppressed | proliferation of Campylobacter jejuni ATCC33560 strain [3]: inhibited proliferation | proliferation of Helicobacter suis TKY strain, SNTW101 strain (number of bacteria in gastric mucosa) [4]: inhibited proliferation | proliferation of Helicobacter pylori SS1 strain, TN2GF4 strain (number of bacteria in gastric mucosa) [5]: inhibited proliferation
